One data set concerns Erysiphe graminis—ERYSGT. In words: Powdery Mildew of Wheat, in vivo whole plant, 24 Hour Protectant. The settings on record: for pest or weed control at 100 ppm: Erysiphe, control of fungal infection vs untreated plants, read-out: ERYSGT in vivo 1 Day Protectant.
For data set [1], the system named is Magnaporthe grisea (Pyricularia oryzae—PYRIOR). The experiment in a line: microbe, parasite or virus in culture. The data set is classed as cell-based. The following applies: Pyricularia oryzae, read-out: PYRIOR in vitro Growth Inhibition.
The test system of data set [2] is Puccinia recondita—PUCCRT. In words: Brown Rust of Wheat, in vivo whole plant, 24 Hour Protectant. The settings on record: Puccinia, read-out: PUCCRT in vivo 1 Day Protectant.
Data set [3] deals with Stagonospora nodorum (Leptosphaeria nodorum—LEPTNO). In words: In vitro fungal growth inhibition, Stagonospora nodorum (LEPTNO). Format: cell-based. The settings on record: Leptosphaeria, read-out: LEPTNO in vitro Growth Inhibition.
Data set [4] relates to Mycosphaerella graminicola (Septoria tritici—SEPTTR). The experiment in a line: In vitro fungal growth inhibition, Mycosphaerella graminicola (SEPTTR). The data set is classed as cell-based. The following applies: Zymoseptoria tritici, read-out: SEPTTR in vitro Growth Inhibition.
Data set [5] concerns Rhizoctonia solani (RHIZSO). In words: microbe, parasite or virus in culture. Format: cell-based. The settings on record: Rhizoctonia solani, read-out: RHIZSO in vitro Growth Inhibition.
In the next data set the test system is Ustilago maydis (USTIMA). In words: microbe, parasite or virus in culture. The data set is classed as cell-based. The following applies: Mycosarcoma maydis, read-out: USTIMA in vitro Growth Inhibition.
For data set [6], the system named is Phytophthora infestans (PHYTIN). The experiment in a line: microbe, parasite or virus in culture. The following applies: Phytophthora infestans, read-out: PHYTIN in vitro Growth Inhibition. The data set is classed as cell-based.
Data set [7] deals with Phytophthora infestans—PHYTIN. In words: whole plant or invertebrate. The data set is classed as in vivo. The following applies: Phytophthora, in Solanum lycopersicum, 24 h, read-out: PHYTIN in vivo 1 Day Protectant.
The test system of data set [8] is Leptosphaeria nodorum—LEPTNO. The experiment in a line: Glume Blotch of Wheat, in vivo whole plant, 24 Hour Protectant. The following applies: for pest or weed control at 100 ppm: Leptosphaeria, control of fungal infection vs untreated plants, read-out: LEPTNO in vivo 1 Day Protectant.
A further data set deals with Septoria tritici—SEPTTR. In words: Leaf Blotch of Wheat, in vivo whole plant, 24 Hour Protectant. The following applies: Zymoseptoria tritici, 24 h, control of fungal infection vs untreated plants, read-out: SEPTTR in vivo 1 Day Protectant.
Setting [9] is: 100 ppm spray, wheat, 24 hour protectant.
[10] abbreviates: wheat plants sprayed at 100 ppm, inoculated after 24 hours.
Where [11] appears, read: wheat plants sprayed at 100 ppm, inoculated after 24 hours, control of fungal infection vs untreated plants.
[12] abbreviates: 100 ppm spray, 24 hour protectant, wheat.
The mark [13] stands for this setting: 100 ppm spray, wheat, 24 hour protectant, % control of fungal infection vs untreated plants.

The text below walks through data of patent US6706740B2, “Fungicidal heterocyclic aromatic amides and their compositions, methods of use and preparation” (Dow AgroSciences LLC, priority 1999, dated 2004).

Each structure is given as a SMILES string. Read-outs that look alike come from different tables or passages of the source.

In general, inhibition refers to how much of the control response was suppressed. Usually melting point stands for the temperature of the solid-liquid transition. Regarding `COc1ccnc(C(=O)Nc2ccc(C(=O)Oc3cccc(C(F)(F)F)c3)cc2)c1O` [Compound 451], the melting point is 196 °C (dec.). Also, in the data set with Erysiphe graminis—ERYSGT (setting [9]), the pest or weed control at 100 ppm was < 25%. Also, in data set [1], the inhibition at 25 ppm is > 80%. Besides, the pest or weed control at 100 ppm in [2] (100 ppm spray, wheat, 24 hour protectant, control of fungal infection vs untreated plants) was in the range of 25 to 74%. Further, the inhibition at 25 ppm in data set [3] (25 ppm in growth medium) was < 80%. Besides, in [4] (25 ppm in growth medium), the inhibition at 25 ppm is < 80%. Further, the inhibition at 25 ppm in data set [5] is < 80%. The inhibition at 25 ppm in the data set with Ustilago maydis (USTIMA) is < 80%. In addition, the inhibition at 25 ppm in [6] is < 80%. Further, in [7], the pest or weed control at 100 ppm was < 25%. Besides, the pest or weed control at 100 ppm in data set [8] (setting [9]) was 25 to 74%. Also, the pest or weed control at 100 ppm in the data set with Septoria tritici—SEPTTR (setting [9]) was < 25%.

Consider `CCOc1ccnc(C(=O)NC2CC(C)(C)CC(C)(C)C2)c1O` [Compound 474], for which the melting point was in the range of 107 to 110 °C. In the data set with Erysiphe graminis—ERYSGT (setting [10]), the pest or weed control at 100 ppm is < 25%. Besides, the inhibition at 25 ppm in data set [1] was < 80%. Also, the pest or weed control at 100 ppm in [2] (setting [11]) was 25 to 74%. The inhibition at 25 ppm in [3] (25 ppm in the growth medium) is < 80%. The inhibition at 25 ppm in data set [4] (25 ppm in the growth medium) is < 80%. In data set [5], the inhibition at 25 ppm is < 80%. The inhibition at 25 ppm in the data set with Ustilago maydis (USTIMA) was < 80%. In addition, in data set [6], the inhibition at 25 ppm is < 80%. For the same compound, in data set [7], the pest or weed control at 100 ppm is < 25%. For the same compound, the pest or weed control at 100 ppm in data set [8] (setting [10]) lay in the range of 25 to 74%. In addition, the pest or weed control at 100 ppm in the data set on Septoria tritici—SEPTTR (setting [10]) is < 25%.

Compound `O=C(Nc1cccc(Cl)c1)c1ncccc1O` [Compound 212] gave a melting point of 131 to 132 °C. The pest or weed control at 100 ppm in the data set on Erysiphe graminis—ERYSGT (setting [12]) was < 25%. The inhibition at 25 ppm in data set [1] was > 80%. In addition, the pest or weed control at 100 ppm in data set [2] (100 ppm spray, 24 hour protectant, wheat, control of fungal infection vs untreated plants) is < 25%. Also, the inhibition at 25 ppm in data set [3] (25 ppm in growth medium) is < 80%. The inhibition at 25 ppm in data set [4] (25 ppm in growth medium) is < 80%. In addition, the inhibition at 25 ppm in data set [5] was < 80%. Also, the inhibition at 25 ppm in the data set with Ustilago maydis (USTIMA) was < 80%. In addition, in data set [6], the inhibition at 25 ppm is < 80%. Also, in [7], the pest or weed control at 100 ppm is < 25%. The pest or weed control at 100 ppm in data set [8] (setting [12]) was < 25%. In addition, in the data set on Septoria tritici—SEPTTR (setting [12]), the pest or weed control at 100 ppm was < 25%.

As to `O=C(NCc1ccc(Cl)c(Cl)c1)c1cccnc1O` [Compound 517], the melting point was 229 to 230 °C. Moreover, the pest or weed control at 100 ppm in the data set on Erysiphe graminis—ERYSGT (setting [10]) is < 25%. Moreover, the inhibition at 25 ppm in data set [1] was < 80%. Moreover, the pest or weed control at 100 ppm in [2] (setting [11]) was < 25%. Also, the inhibition at 25 ppm in data set [3] (25 ppm in the growth medium) is < 80%. The inhibition at 25 ppm in data set [4] (25 ppm in the growth medium) was < 80%. Besides, the inhibition at 25 ppm in data set [5] is < 80%. The inhibition at 25 ppm with Ustilago maydis (USTIMA) is < 80%. Besides, the inhibition at 25 ppm in [6] was < 80%. For the same compound, the pest or weed control at 100 ppm in data set [7] was < 25%. Also, the pest or weed control at 100 ppm in data set [8] (setting [10]) was in the range of 25 to 74%. Besides, in the data set on Septoria tritici—SEPTTR (setting [10]), the pest or weed control at 100 ppm is < 25%.

In the case of `COc1ccnc(C(=O)Nc2ccc(Oc3ccc(C(F)(F)F)cc3)cc2)c1OC(C)=O` [Compound 709], the melting point was in the range of 165 to 166 °C. For the same compound, the “ERYSGT in vivo 1 Day Protectant” value with Erysiphe graminis—ERYSGT (setting [13]) is recorded as “+ +”. For the same compound, the inhibition at 25 ppm in [1] is > 80%. For the same compound, the pest or weed control at 100 ppm in data set [2] (setting [13]) was < 25%. Besides, the inhibition at 25 ppm in data set [3] (25 ppm in growth medium) is > 80%. Moreover, in data set [4] (25 ppm in growth medium), the inhibition at 25 ppm is > 80%. For the same compound, the inhibition at 25 ppm in data set [5] is > 80%. For the same compound, in the data set with Ustilago maydis (USTIMA), the inhibition at 25 ppm was > 80%. Moreover, the inhibition at 25 ppm in [6] is < 80%. In addition, the pest or weed control at 100 ppm in data set [7] is < 25%. The “LEPTNO in vivo 1 Day Protectant” value in [8] (setting [13]) is “+ +”.
